Experimental data taken from ChEMBL document CHEMBL1201862, “PubChem BioAssay data set” (2004).
Activity calls are given as the source filed them.

Assays:
Type in all cases: functional
Hexokinase HKDC1 = molecular target: T1, Hexokinase HKDC1 (Homo sapiens, UniProt Q2TB90); assay: SAR analysis of small molecule inhibitors of hexokinase domain containing I (HKDC1). [Related pubchem assays (depositor defined):AID493160, AID493190]
T1 sequence (Q2TB90 whole entry): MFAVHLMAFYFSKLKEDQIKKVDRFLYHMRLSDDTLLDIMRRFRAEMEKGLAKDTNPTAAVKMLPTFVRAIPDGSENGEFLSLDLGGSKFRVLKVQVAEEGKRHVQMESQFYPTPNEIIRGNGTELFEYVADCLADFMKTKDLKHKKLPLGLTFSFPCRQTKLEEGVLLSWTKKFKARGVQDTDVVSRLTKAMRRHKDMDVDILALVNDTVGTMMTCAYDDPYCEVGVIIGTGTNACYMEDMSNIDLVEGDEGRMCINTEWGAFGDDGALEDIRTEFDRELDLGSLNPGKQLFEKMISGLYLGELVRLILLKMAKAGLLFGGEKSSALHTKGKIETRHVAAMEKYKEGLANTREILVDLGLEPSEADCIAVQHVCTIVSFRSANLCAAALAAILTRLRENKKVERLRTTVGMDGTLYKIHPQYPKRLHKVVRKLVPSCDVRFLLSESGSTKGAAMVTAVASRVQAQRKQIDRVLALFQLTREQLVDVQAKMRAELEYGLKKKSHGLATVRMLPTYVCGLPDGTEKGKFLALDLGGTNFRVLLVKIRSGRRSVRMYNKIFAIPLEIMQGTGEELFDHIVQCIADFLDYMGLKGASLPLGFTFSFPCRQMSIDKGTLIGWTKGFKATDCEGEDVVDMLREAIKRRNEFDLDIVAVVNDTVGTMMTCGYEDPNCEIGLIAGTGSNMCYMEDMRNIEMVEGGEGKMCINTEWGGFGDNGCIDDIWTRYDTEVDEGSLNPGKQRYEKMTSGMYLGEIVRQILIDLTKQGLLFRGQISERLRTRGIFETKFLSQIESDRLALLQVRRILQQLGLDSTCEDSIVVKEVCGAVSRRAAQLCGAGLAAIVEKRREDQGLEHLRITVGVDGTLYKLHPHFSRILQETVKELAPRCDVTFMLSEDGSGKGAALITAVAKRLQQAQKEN

Hexokinase-1 = molecular target: T2, Hexokinase-1 (Homo sapiens, UniProt P19367); assay: SAR analysis of small molecule inhibitors of hexokinase domain containing I (HKDC1) in the hexokinase 1 selectivity assay. [Related pubchem assays (depositor defined):AID493160, AID493190]
T2 sequence (P19367 whole entry): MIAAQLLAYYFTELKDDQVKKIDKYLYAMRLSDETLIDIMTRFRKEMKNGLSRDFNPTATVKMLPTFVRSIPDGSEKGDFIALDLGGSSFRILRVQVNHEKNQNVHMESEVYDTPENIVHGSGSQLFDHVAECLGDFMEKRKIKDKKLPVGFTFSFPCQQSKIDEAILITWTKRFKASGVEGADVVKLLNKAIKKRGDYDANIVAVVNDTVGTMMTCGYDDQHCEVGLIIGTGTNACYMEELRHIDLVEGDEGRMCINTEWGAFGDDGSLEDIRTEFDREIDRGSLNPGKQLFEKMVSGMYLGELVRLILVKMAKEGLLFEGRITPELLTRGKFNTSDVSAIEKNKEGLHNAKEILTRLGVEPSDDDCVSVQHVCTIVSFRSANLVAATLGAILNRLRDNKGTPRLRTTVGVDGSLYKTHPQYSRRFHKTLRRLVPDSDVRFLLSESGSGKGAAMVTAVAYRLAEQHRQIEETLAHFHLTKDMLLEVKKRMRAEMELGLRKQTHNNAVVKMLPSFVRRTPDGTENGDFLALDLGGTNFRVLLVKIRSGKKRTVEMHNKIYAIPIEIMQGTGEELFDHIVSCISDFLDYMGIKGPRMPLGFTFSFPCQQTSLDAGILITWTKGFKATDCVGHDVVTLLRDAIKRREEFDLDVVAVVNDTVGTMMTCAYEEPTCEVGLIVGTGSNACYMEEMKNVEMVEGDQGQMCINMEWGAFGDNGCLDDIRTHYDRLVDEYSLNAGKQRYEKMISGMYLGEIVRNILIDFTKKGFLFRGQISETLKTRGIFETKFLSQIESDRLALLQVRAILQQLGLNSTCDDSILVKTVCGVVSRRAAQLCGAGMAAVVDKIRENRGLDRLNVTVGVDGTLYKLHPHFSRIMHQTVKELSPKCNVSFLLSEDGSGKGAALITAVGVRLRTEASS

Phospholipase D2 = Phospholipase D2 (Homo sapiens, UniProt O14939); assay: PLD2 inhibitor potency in cells, dose response (AID 602147);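 note: cellular assay in HEK293 cells overexpressing GFP-tagged PLD2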
Phospholipase D1 = Phospholipase D1 (Homo sapiens, UniProt Q13393); assay: PLD1 inhibitor potency in cells, dose response (AID 602151);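 note: cellular PLD1 assay in Calu-1 cells stimulated with PMA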
[1] = molecular target: T3, Sentrin-specific protease 7 (Homo sapiens, UniProt Q9BQF6); assay: SENP7 protease inhibitors, SAR follow-up, biochemical, luminescence, set 2 (AID 588600)
T3 sequence (Q9BQF6 whole entry): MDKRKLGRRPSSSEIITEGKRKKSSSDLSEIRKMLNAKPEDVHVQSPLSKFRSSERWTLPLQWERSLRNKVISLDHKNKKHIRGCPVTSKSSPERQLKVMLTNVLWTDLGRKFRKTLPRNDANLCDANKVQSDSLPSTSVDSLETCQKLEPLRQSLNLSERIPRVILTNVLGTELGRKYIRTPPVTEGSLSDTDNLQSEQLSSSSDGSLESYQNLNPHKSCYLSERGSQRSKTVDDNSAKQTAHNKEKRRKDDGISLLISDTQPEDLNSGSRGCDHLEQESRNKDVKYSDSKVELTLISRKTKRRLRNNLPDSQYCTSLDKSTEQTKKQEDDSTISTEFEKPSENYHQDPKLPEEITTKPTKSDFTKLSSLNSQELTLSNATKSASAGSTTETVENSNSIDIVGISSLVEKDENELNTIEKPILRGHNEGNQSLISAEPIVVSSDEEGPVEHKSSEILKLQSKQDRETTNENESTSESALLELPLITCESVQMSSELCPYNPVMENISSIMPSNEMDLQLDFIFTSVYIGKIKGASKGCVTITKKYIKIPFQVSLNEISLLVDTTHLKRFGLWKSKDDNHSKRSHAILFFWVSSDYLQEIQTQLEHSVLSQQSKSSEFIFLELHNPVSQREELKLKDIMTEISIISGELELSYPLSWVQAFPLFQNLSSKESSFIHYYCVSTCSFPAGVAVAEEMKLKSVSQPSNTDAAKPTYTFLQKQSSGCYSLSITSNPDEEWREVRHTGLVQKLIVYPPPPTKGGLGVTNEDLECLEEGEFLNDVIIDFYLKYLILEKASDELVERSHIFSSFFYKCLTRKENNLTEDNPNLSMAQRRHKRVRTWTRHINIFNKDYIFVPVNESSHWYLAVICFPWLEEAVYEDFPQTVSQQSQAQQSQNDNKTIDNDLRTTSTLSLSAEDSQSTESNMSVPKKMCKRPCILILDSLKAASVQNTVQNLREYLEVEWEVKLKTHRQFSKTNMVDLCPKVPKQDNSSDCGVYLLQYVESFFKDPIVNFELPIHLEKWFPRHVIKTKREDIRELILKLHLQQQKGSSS

[2] = molecular target: T4, Sentrin-specific protease 6 (Homo sapiens, UniProt Q9GZR1); assay: SENP6 protease inhibitors, SAR follow-up, biochemical, luminescence, set 2 (AID 588598)
T4 sequence (Q9GZR1 whole entry): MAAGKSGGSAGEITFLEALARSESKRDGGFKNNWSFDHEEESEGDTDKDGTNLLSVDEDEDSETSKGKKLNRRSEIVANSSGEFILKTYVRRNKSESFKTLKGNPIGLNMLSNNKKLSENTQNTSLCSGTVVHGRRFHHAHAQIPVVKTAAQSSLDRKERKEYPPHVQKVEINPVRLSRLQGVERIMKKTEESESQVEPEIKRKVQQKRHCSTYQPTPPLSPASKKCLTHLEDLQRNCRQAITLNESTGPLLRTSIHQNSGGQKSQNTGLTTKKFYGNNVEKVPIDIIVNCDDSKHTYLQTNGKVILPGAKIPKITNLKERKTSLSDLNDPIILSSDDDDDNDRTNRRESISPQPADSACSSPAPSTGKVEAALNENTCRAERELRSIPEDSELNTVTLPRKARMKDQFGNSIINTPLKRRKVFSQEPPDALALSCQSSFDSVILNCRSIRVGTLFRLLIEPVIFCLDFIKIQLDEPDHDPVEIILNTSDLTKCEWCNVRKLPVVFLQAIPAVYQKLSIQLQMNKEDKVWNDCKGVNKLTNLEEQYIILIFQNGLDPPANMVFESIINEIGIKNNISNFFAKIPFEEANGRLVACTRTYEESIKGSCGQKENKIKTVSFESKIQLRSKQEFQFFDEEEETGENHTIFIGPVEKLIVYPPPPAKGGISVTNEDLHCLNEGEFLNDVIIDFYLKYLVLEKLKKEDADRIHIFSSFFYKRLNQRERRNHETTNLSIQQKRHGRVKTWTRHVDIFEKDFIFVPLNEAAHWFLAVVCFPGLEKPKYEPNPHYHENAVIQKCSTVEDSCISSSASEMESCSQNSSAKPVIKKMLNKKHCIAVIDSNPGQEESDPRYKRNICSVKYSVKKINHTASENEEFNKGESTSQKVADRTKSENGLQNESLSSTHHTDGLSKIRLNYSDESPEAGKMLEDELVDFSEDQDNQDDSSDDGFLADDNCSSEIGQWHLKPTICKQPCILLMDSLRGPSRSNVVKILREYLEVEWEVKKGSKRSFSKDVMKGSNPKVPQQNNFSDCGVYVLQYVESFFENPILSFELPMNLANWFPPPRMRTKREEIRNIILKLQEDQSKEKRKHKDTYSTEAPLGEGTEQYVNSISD

[3] = molecular target: T5, Sentrin-specific protease 8 (Homo sapiens, UniProt Q96LD8); assay: SENP8 protease inhibitors, SAR follow-up, biochemical, luminescence, set 2 (AID 588601)
T5 sequence (Q96LD8 whole entry): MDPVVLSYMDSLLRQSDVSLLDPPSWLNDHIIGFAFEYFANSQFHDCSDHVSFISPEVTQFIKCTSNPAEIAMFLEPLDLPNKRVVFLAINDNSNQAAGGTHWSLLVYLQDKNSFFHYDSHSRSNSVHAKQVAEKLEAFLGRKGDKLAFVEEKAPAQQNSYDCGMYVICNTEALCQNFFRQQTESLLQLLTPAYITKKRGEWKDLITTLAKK

Caspase-3 = molecular target: T6, Caspase-3 (Homo sapiens, UniProt P42574); assay: caspase-3 inhibitors as off-family protease, SAR follow-up, selectivity assay for SENP protease inhibitor project, biochemical, luminescence, set 2 (AID 588599)
T6 sequence (P42574 whole entry): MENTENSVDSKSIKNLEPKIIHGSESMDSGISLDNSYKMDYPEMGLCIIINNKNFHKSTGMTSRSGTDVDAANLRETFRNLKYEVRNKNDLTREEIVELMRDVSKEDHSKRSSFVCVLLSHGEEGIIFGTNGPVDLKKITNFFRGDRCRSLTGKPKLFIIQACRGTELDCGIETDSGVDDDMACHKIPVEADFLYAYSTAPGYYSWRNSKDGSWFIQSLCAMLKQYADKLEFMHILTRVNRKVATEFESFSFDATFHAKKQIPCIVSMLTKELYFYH

Phospholipase D2, sequence (O14939 whole entry): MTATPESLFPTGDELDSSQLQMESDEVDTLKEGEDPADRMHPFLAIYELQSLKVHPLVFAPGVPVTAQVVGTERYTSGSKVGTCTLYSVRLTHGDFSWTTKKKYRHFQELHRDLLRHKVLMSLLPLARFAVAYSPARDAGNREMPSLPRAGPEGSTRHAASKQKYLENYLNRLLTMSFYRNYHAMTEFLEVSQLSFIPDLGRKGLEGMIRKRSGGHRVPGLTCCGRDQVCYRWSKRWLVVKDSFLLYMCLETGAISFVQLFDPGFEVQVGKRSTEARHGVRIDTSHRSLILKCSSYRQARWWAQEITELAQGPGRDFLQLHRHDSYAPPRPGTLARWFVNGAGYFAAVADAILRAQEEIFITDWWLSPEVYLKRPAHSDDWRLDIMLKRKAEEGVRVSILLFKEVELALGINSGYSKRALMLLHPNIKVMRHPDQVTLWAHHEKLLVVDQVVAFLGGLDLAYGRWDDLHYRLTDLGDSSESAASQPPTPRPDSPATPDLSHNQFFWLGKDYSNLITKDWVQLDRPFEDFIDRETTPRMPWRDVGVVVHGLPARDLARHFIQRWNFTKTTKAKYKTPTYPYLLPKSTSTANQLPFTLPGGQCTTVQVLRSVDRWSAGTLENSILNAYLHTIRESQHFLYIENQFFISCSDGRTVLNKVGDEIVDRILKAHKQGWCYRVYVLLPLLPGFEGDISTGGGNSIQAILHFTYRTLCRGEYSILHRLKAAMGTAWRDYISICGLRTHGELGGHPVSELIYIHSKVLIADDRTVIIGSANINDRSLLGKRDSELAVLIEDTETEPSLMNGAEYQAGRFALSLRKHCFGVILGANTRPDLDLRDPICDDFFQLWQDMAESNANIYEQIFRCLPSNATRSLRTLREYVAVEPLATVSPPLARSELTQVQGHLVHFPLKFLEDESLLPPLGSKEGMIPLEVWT
Phospholipase D1, sequence (Q13393 whole entry): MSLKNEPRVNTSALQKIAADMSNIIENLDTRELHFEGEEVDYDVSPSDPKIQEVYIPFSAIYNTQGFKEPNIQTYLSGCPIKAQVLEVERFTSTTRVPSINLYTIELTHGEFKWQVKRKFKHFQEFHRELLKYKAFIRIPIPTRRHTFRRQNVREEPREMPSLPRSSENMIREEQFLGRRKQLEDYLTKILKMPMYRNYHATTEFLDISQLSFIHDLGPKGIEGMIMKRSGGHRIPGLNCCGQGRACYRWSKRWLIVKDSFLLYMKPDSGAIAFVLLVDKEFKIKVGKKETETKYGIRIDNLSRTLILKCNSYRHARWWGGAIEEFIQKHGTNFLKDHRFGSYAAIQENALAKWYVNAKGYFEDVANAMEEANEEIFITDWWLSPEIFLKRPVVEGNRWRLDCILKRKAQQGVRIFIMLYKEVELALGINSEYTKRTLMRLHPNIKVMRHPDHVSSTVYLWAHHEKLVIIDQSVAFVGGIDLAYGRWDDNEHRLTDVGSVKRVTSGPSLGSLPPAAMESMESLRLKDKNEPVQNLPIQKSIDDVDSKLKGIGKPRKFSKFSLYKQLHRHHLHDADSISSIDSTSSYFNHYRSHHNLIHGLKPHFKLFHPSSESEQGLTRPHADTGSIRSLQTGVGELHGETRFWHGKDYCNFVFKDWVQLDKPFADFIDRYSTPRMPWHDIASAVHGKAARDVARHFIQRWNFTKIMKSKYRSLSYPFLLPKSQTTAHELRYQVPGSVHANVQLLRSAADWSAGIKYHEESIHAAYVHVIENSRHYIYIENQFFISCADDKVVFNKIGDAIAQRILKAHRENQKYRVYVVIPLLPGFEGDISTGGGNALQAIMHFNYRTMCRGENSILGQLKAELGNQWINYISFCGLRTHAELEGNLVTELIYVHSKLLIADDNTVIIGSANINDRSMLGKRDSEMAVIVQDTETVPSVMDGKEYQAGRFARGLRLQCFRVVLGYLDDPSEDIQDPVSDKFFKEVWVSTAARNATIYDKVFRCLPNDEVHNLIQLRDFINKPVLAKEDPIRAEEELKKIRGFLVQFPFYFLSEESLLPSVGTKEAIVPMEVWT

`Nc1n[nH]c(SCC(=O)Nc2cc(S(=O)(=O)N3CCOCC3)ccc2Cl)n1` was tested, and the IC50 (Hexokinase HKDC1) was > 80 µM (inactive) and the IC50 (Hexokinase-1) was > 80 µM (inactive).

`C[C@@H](CN1CCC2(CC1)C(=O)NCN2c1ccc(F)c(F)c1)NC(=O)c1ccc2ccccc2c1` was tested, and the IC50 (Phospholipase D2) was 0.3 µM (active) and the IC50 (Phospholipase D1) was 0.1 µM (active).

For `CS(=O)(=O)c1ccc2nc(NC(=O)c3ccc(OC(F)(F)F)cc3)sc2c1`, the IC50 [1] was > 99 µM (inactive), the IC50 [2] was > 99 µM (inactive) and the IC50 [3] was > 99 µM (inactive). For the same compound, the IC50 (Caspase-3) was > 99 µM (inactive).
